Test results published in publication PMC5053573, “Structure-Based Design of Tetrahydroisoquinoline-7-carboxamides as Selective Discoidin Domain Receptor 1 (DDR1) Inhibitors” (Journal of Medicinal Chemistry, 2016).

Legend:
Experiment in all cases: biochemical
Details in all cases: read-out: %Ctrl @ 1000nM
[1] = biological target: ABL1(T315I)-nonphosphorylated (Homo sapiens, UniProt P00519, T315I)
SRPK1 = SRPK1 (Homo sapiens, UniProt Q96SB4)
SRC = SRC (Homo sapiens, UniProt P12931)
FER = FER (Homo sapiens, UniProt P16591)
Chain of FER (P16591 whole entry): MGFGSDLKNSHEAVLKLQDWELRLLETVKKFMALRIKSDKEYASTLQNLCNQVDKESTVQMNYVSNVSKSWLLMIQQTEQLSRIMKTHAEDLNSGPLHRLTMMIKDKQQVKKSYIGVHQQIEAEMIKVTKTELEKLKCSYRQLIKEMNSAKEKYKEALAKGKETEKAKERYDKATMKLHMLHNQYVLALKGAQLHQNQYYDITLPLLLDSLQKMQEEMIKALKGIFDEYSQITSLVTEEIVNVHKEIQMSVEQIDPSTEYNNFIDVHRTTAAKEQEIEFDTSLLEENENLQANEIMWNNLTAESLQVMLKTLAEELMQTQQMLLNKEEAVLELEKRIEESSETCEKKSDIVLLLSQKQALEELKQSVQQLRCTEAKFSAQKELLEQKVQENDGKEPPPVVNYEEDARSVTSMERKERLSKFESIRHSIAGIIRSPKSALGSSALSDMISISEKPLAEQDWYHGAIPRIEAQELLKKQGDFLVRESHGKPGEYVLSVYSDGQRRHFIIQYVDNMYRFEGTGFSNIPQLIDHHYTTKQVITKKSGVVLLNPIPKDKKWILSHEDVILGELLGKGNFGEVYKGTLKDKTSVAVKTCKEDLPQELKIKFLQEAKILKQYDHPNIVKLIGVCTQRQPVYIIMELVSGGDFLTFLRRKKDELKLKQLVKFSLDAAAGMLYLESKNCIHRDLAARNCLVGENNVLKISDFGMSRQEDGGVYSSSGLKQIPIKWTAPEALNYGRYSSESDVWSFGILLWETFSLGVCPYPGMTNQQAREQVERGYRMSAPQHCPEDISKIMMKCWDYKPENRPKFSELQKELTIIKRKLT

PIP5K2C = biological target: T1, PIP5K2C (Homo sapiens, UniProt Q8TBX8)
T1 construct: gene PIP4K2C

ROCK1 = ROCK1 (Homo sapiens, UniProt Q13464)
Chain of ROCK1 (Q13464 whole entry): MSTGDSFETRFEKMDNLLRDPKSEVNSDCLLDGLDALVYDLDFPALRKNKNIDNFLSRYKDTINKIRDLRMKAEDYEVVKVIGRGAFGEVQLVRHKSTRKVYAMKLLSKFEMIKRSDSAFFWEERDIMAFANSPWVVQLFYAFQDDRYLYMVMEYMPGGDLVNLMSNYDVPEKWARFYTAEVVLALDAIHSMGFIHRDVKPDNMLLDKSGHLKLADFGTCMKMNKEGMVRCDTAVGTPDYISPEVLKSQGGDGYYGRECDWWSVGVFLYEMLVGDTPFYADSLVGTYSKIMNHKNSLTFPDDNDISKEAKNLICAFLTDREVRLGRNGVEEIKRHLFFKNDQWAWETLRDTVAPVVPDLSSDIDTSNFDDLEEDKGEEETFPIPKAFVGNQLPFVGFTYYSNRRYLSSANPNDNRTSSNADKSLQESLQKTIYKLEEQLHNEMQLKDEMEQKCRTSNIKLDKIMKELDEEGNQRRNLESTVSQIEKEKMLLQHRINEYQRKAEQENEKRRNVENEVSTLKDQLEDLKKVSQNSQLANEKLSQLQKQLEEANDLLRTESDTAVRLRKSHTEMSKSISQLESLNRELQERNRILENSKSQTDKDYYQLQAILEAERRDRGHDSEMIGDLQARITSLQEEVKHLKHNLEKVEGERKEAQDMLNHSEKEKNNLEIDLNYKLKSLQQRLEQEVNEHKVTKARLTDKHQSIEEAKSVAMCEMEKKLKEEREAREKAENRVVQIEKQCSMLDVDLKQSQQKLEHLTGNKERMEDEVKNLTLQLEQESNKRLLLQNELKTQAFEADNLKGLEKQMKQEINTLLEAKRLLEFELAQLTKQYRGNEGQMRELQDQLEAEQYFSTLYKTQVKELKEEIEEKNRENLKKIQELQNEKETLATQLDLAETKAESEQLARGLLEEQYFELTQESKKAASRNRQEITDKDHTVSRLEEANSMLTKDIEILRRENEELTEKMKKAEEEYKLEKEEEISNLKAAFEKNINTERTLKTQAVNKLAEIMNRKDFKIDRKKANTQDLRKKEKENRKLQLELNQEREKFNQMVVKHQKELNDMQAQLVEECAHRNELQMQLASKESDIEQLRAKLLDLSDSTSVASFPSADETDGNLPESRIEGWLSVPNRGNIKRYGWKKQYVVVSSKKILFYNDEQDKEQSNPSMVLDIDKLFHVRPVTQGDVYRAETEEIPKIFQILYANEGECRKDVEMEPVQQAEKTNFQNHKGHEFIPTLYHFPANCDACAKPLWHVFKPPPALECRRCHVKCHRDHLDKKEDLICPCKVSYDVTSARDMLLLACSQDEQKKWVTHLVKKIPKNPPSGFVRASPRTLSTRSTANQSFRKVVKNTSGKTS

SGK3 = SGK3 (Homo sapiens, UniProt Q96BR1)
LRRK2 = LRRK2 (Homo sapiens, UniProt Q5S007)
PRKG2 = PRKG2 (Homo sapiens, UniProt Q13237)
Chain of PRKG2 (Q13237 whole entry): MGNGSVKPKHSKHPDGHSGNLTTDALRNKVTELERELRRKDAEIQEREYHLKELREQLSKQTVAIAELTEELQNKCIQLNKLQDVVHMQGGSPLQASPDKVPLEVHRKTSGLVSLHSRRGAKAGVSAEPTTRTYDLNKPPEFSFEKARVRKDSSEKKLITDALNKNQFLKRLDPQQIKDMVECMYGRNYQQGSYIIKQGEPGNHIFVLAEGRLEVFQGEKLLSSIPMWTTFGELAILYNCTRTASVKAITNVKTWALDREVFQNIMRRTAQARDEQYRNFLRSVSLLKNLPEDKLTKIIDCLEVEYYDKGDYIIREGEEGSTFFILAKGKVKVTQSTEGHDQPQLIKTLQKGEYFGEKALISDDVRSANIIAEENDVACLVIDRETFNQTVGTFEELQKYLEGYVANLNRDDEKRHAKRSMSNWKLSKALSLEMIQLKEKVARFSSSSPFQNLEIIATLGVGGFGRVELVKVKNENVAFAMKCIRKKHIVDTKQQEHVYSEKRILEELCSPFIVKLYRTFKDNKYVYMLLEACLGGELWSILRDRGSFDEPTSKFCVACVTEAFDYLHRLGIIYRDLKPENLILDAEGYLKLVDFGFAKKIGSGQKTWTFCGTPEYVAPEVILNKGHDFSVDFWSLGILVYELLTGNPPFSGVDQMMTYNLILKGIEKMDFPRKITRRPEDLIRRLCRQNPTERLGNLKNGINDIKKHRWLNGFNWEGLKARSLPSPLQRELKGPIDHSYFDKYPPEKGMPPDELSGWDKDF

CAMK2A = CAMK2A (Homo sapiens, UniProt Q9UQM7)
MST3 = biological target: T2, MST3 (Homo sapiens, UniProt Q9Y6E0)
T2 construct: gene STK24

CAMK1 = CAMK1 (Homo sapiens, UniProt Q14012)
PIM2 = PIM2 (Homo sapiens, UniProt Q9P1W9)
Chain of PIM2 (Q9P1W9 whole entry): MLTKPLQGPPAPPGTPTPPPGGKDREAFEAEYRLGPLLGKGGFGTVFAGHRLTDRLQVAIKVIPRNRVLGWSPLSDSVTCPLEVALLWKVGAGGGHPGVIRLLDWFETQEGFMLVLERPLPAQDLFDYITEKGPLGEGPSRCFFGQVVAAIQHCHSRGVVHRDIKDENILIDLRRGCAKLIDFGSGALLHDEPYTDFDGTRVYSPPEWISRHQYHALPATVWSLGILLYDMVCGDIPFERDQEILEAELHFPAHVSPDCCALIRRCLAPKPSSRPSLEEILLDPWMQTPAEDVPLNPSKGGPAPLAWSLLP

PRP4 = biological target: T3, PRP4 (Homo sapiens, UniProt Q13523)
T3 construct: gene PRPF4B

CDK9 = CDK9 (Homo sapiens, UniProt P50750)
Chain of CDK9 (P50750 whole entry): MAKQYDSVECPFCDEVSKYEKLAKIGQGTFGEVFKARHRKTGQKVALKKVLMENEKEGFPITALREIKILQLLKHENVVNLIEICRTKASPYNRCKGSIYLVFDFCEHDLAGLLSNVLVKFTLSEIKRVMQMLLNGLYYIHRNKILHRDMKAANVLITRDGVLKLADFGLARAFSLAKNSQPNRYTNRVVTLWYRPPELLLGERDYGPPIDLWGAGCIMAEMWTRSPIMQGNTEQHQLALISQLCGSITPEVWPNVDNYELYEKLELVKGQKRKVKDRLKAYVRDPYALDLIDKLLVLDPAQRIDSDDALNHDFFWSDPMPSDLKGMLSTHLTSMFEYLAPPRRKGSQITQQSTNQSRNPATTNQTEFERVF

FLT3(K663Q) = FLT3(K663Q) (Homo sapiens, UniProt P36888, K663Q)
MAP4K2 = MAP4K2 (Homo sapiens, UniProt Q12851)
BRK = biological target: T4, BRK (Homo sapiens, UniProt Q13882)
T4 construct: gene PTK6

CDK8 = CDK8 (Homo sapiens, UniProt P49336)
SRPK3 = SRPK3 (Homo sapiens, UniProt Q9UPE1)
SgK110 = biological target: T5, SgK110 (Homo sapiens, UniProt P0C264)
T5 construct: gene SBK3
T5 sequence (P0C264 whole entry): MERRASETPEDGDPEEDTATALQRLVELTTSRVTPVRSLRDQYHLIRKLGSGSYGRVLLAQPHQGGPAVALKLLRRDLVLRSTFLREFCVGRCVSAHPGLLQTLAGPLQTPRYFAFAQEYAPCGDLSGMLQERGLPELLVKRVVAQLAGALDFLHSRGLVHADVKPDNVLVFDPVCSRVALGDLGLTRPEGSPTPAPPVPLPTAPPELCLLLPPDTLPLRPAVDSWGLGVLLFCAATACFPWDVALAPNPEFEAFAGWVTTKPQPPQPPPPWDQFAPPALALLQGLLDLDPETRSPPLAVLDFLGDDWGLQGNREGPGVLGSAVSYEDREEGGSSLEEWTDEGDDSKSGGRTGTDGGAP

[2] = biological target: EGFR(L747-S752del, P753S) (Homo sapiens, UniProt P00533, DEL747-752/P753S)
JNK1 = biological target: T6, JNK1 (Homo sapiens, UniProt P45983)
T6 construct: gene MAPK8

PRKCH = PRKCH (Homo sapiens, UniProt P24723)
PIK3CB = PIK3CB (Homo sapiens, UniProt P42338)
PCTK2 = biological target: T7, PCTK2 (Homo sapiens, UniProt Q00537)
T7 construct: gene CDK17

FGFR2 = FGFR2 (Homo sapiens, UniProt P21802)
MKNK2 = MKNK2 (Homo sapiens, UniProt Q9HBH9)
CLK3 = CLK3 (Homo sapiens, UniProt P49761)
PAK2 = PAK2 (Homo sapiens, UniProt Q13177)
Chain of PAK2 (Q13177 whole entry): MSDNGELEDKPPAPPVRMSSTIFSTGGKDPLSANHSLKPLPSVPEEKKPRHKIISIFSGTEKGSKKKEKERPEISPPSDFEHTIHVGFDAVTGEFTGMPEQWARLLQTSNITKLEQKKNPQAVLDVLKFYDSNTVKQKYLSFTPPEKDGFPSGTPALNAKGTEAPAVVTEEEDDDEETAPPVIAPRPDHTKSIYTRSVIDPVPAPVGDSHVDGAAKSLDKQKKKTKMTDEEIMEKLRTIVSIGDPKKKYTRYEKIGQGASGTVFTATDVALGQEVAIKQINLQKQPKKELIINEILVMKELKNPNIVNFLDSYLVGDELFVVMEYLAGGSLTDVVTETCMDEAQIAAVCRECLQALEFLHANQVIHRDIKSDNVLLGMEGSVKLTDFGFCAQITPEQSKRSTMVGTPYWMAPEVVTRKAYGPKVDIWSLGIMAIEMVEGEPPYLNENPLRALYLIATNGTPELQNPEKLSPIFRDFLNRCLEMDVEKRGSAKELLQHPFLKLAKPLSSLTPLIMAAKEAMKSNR

MAP3K1 = MAP3K1 (Homo sapiens, UniProt Q13233)
S6K1 = biological target: T8, S6K1 (Homo sapiens, UniProt P23443)
T8 construct: gene RPS6KB1
T8 sequence (P23443 whole entry): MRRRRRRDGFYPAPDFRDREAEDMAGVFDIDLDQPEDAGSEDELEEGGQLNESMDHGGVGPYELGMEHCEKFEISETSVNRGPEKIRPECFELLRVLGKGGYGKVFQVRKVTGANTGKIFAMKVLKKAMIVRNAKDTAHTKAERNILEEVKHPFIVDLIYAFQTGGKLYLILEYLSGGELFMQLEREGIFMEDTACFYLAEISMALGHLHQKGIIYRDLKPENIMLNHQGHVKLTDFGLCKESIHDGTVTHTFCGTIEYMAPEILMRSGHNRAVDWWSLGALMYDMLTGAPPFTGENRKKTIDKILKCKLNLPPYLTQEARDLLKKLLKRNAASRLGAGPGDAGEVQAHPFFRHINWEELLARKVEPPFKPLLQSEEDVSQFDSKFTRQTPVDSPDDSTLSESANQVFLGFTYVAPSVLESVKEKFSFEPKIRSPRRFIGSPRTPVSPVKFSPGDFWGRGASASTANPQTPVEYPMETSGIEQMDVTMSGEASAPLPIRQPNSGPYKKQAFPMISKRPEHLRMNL

PLK3 = PLK3 (Homo sapiens, UniProt Q9H4B4)
PAK7 = biological target: T9, PAK7 (Homo sapiens, UniProt Q9P286)
T9 construct: gene PAK5

NEK11 = NEK11 (Homo sapiens, UniProt Q8NG66)

remaining activity at 1 µM [1]: 100% | remaining activity at 1 µM (SRPK1): 100% | remaining activity at 1 µM (SRC): 94% | remaining activity at 1 µM (FER): 92% | remaining activity at 1 µM (PIP5K2C): 100% | remaining activity at 1 µM (ROCK1): 100% | remaining activity at 1 µM (SGK3): 100% | remaining activity at 1 µM (LRRK2): 100% | remaining activity at 1 µM (PRKG2): 98% | remaining activity at 1 µM (CAMK2A): 97% | remaining activity at 1 µM (MST3): 64% | remaining activity at 1 µM (CAMK1): 84% | remaining activity at 1 µM (PIM2): 97% | remaining activity at 1 µM (PRP4): 100% | remaining activity at 1 µM (CDK9): 92% | remaining activity at 1 µM (FLT3(K663Q)): 62% | remaining activity at 1 µM (MAP4K2): 93% | remaining activity at 1 µM (BRK): 84% | remaining activity at 1 µM (CDK8): 37% | remaining activity at 1 µM (SRPK3): 93% | remaining activity at 1 µM (SgK110): 98% | remaining activity at 1 µM [2]: 83% | remaining activity at 1 µM (JNK1): 97% | remaining activity at 1 µM (PRKCH): 97% | remaining activity at 1 µM (PIK3CB): 100% | remaining activity at 1 µM (PCTK2): 96% | remaining activity at 1 µM (FGFR2): 74% | remaining activity at 1 µM (MKNK2): 100% | remaining activity at 1 µM (CLK3): 95% | remaining activity at 1 µM (PAK2): 85% | remaining activity at 1 µM (MAP3K1): 95% | remaining activity at 1 µM (S6K1): 100% | remaining activity at 1 µM (PLK3): 100% | remaining activity at 1 µM (PAK7): 98% | remaining activity at 1 µM (NEK11): 87%
SMILES: Cc1cn(-c2cc(NC(=O)c3ccc4c(c3)CN(c3cncnc3)C[C@@H]4C)cc(C(F)(F)F)c2)cn1 [Compound 6j]
